The text below walks through data of PMC5064002, “Sintokamide A Is a Novel Antagonist of Androgen Receptor That Uniquely Binds Activation Function-1 in Its Amino-terminal Domain” (The Journal of Biological Chemistry, 2016).

Data set [1] addresses T1, AR (Homo sapiens, UniProt P10275, T878A).
T1 construct: endogenous in cells; host or cells: LNCaP
T1 sequence (P10275 1-920 T878A): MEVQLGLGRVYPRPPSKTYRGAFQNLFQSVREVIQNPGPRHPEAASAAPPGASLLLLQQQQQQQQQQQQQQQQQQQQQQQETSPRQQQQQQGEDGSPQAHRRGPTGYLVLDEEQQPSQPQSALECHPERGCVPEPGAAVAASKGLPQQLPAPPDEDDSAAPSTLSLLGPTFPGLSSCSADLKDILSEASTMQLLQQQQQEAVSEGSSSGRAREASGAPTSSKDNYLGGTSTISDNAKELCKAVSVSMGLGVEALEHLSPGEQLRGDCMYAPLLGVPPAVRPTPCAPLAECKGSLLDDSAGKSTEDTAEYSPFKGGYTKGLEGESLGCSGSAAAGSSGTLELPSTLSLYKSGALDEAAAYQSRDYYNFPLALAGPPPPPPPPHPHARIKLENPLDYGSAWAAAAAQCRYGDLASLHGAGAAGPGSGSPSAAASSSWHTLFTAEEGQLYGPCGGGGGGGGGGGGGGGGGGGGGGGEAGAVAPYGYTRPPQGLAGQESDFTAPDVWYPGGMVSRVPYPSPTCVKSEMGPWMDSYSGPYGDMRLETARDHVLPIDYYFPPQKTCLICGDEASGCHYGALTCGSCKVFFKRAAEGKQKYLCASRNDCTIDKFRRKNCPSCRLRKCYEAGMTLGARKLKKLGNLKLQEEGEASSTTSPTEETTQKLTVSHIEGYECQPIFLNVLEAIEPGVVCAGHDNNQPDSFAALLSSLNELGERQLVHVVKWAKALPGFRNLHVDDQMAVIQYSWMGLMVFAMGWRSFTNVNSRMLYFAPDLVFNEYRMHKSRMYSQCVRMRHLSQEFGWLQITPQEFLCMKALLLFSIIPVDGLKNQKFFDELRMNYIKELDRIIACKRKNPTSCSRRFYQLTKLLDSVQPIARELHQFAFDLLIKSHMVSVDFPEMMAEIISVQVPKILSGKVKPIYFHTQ
Put plainly: AR-responsive luciferase reporters (PSA (6.1 kb), PB, ARR3) in LNCaP cells, SINT1 and EPI-002 alone or combined. In kind it is cell-based. The note with it: 1 nM R1881 48 h. The protocol:
LNCaP cells were transfected with AR-responsive PSA (6.1 kb)-luciferase, PB-luciferase, and ARR3-luciferase reporters. Forty-eight hours later, cells were pretreated for 1 h with SINT1 (0–24 μM), EPI-002 (0–31 μM), or a combination with a constant ratio of 1:1.3 for EPI-002/SINT1 concentration. Cells were then incubated with 1 nM R1881 for 48 h, and a luciferase assay was performed. IC50 values for SINT1 for the three reporters were calculated using GraphPad Prism (version 6.01; GraphPad Software). The combination index of SINT1 and EPI-002 was calculated using CalcuSyn software. Combination indices >1, 1, and <1 indicate antagonism, additive affect, and synergy, respectively.
Background: Reporter assays use an easily measured gene product as a stand-in for the process of interest.

Data set [2] deals with T2, glucocorticoid receptor (GR)-α (Homo sapiens, UniProt P04150).
T2 construct: expressed in transfected cells; host or cells: LNCaP
T2 sequence (P04150 1-777): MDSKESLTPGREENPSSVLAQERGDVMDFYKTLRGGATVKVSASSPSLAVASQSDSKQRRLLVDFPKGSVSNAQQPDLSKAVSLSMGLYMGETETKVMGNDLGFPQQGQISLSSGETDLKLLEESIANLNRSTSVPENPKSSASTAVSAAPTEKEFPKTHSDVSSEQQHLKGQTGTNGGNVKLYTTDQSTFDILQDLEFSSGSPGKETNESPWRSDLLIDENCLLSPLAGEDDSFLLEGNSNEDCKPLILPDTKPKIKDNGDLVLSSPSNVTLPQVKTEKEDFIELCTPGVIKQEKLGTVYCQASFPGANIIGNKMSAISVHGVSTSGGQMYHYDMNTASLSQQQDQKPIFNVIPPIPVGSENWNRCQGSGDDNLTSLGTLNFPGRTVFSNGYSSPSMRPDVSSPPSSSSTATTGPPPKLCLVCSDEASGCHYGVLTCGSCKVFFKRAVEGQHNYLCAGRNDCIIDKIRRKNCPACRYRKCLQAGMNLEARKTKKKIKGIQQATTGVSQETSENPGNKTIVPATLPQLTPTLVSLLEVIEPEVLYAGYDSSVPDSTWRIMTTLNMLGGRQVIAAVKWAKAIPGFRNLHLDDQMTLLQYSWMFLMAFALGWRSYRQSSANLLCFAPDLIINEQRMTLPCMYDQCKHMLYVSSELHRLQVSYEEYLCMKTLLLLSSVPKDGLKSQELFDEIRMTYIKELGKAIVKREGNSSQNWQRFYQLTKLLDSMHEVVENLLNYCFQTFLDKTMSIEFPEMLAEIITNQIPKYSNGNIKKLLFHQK
Put plainly: Steroid receptor specificity: GRE-luciferase reporter in LNCaP cells. In kind it is cell-based. The note with it: 10 μM compound, 10 nM dexamethasone, 48 h. As for the experimental part:
LNCaP cells were transfected with the reporter plasmid PSA(6.1kb)-luciferase, PRE-luciferase, or GRE-luciferase and expression vector for progesterone receptor (PR)-β or glucocorticoid receptor (GR)-α in serum-free, phenol red-free medium using Lipofectin (Invitrogen). […] After 48 h of treatment, cells were lysed and analyzed for luciferase activities.
FIGURE 1. […] A, LNCaP cells were transfected with PSA (6.1 kb)-luciferase, PRE-luciferase, or GRE-luciferase reporters and expression vector for PRβ or GRα. […] Error bars represent mean percentage of vehicle activity ±S.E. of at least three independent experiments with triplicate wells. SINT1, 10 μM; […]; ***, p < 0.001. […]. Error bars represents mean ± S.E. of three technical replicates. […] DAPI staining indicates the location of the nucleus. Scale bars, 20 μm.

Data set [3] relates to PC3 cells. More on the design: method as in PMID 18834139. The following applies: cited from earlier work.
In data set [4] the target is T3, endogenous AR (Homo sapiens, UniProt P10275, T878A).
T3 construct: endogenous in cells; host or cells: LNCaP
T3 sequence (P10275 1-920 T878A): T1 sequence (P10275 1-920 T878A)
Put plainly: Steroid receptor specificity: PSA(6.1kb)-luciferase reporter in LNCaP cells. The format is cell-based. The following applies: 10 μM compound, 1 nM R1881, 48 h.

The nature of data set [5]: Lability of SINT1 over the course of the studies. The format is physicochemical. The note with it: activity decreased over the course of the studies. The protocol: SINT1 is labile, and over the course of completing these studies its activity decreased. […] Therefore, we first evaluated its pharmacokinetics before in vivo studies were carried out to determine dose and route of delivery.

On to `CCC(=O)NC(CC(C)C(Cl)(Cl)Cl)C(=O)N1C(=O)C=C(OC)C1CC(C)C(Cl)Cl` (stereo not shown) [SINT1, Sintokamide A], for which the IC50 (as a rule, the concentration needed to halve the response being measured) in data set [1] (IC50, ARR3-Luc) was found to be 13.2 ± 1.19 µM; in data set [1] (IC50, PB-Luc) it was 11.6 ± 0.78 µM; in data set [1] (IC50, PSA (6.1 kb)-Luc), 10.7 ± 1.55 µM. For the same compound, the “GR transcriptional activity (GRE-luciferase)” value in data set [2] is “did not affect”. The “effect on PC3 cells that do not depend on AR for growth and survival” value in data set [3] is “no effect”. For the same compound, the “androgen-induced activity of endogenous AR (PSA (6.1 kb)-luciferase)” value in data set [4] is given as “significantly inhibited”. Besides, in data set [5], the stability result was “labile”.
